From US20220241306A1, “CHITIN ANALOGS FOR THE TREATMENT OF KIDNEY DISEASES” (AyuVis Research, Inc., priority 2021, published 2022)

Columns and labels:
glycerol-induced AKI = assay: Mouse model for acute kidney injury (glycerol-induced): serum creatinine, BUN, proteinuria; format: in vivo; conditions: for blood urea nitrogen (BUN) level in serum / serum creatinine level: glycerol IM, compound 2 (5 mg/kg) or compound 8 (2.5 mg/kg) IP at 1, 6 and 24 hrs post glycerol, vs glycerol controls
From the text: Mouse model for acute kidney injury. Eight to ten weeks old male C57 BL/6J mice (n=5-7 per group, male and female) were utilized to induce acute kidney injury. Animals were randomized before treatment. Littermates or co-housed animals were chosen for this study. The mice were kept without water but unlimited access to chow for −24 hrs. In first study, nine ml per kg body weight of 1:1 diluted glycerol was intramuscularly injected followed by intraperitoneal administration of either compound 2 (5 mg/kg) or compound 8 (2.5 mg/kg body weight) at 1, 6 and 24 hrs post glycerol dosing. In a second study, AVR-48 was injected either at 5.0 mg/kg/dose or 10 mg/kg/dose IP after 3 h of glycerol administration and was dosed 2/day for 3 days (total 7 doses) and survival was monitored till 8 days. Proteinuria was measured in urine at 24 hrs before sacrifice of the animals by an albustix proteinuria strip. The mice were sacrificed, and bloods were collected by heart puncture. Serum samples were stored at −80° C. for future use. Kidney, spleens, lungs and liver were immediately fixed in 10% buffered formalin for histopathological analysis. Part of the kidney were snap frozen for RNA isolation. To evaluate the effect of AVR-48 and AVR-123 on acute kidney injury, the inventors measured the vital parameters of kidney injury, i.e., levels of creatinine and blood urea nitrogen (BUN) in the serum of animals treated with AVR-48 and AVR-123 along with glycerol treated positive controls. PBS treated animals were considered as sham. […] N=4-7 mice. *p=0.02, **p=0.00′7, and ***p=0.0004, One-way ANOVA, Dunnett's multiple comparison test. […] N=4-7 mice, each sample run in duplicates. ****p<0.0001, One-way ANOVA, Dunnett's multiple comparison test.

TNF-α = assay: RT-PCR of kidney tissue, glycerol-treated mice: TNF-α; format: in vivo, mouse; conditions: whole kidney tissue, RT-PCR vs GAPDH
From the text: (§1) Mouse model for acute kidney injury. Eight to ten weeks old male C57 BL/6J mice (n=5-7 per group, male and female) were utilized to induce acute kidney injury. Animals were randomized before treatment. Littermates or co-housed animals were chosen for this study. The mice were kept without water but unlimited access to chow for −24 hrs. In first study, nine ml per kg body weight of 1:1 diluted glycerol was intramuscularly injected followed by intraperitoneal administration of either compound 2 (5 mg/kg) or compound 8 (2.5 mg/kg body weight) at 1, 6 and 24 hrs post glycerol dosing. In a second study, AVR-48 was injected either at 5.0 mg/kg/dose or 10 mg/kg/dose IP after 3 h of glycerol administration and was dosed 2/day for 3 days (total 7 doses) and survival was monitored till 8 days.
(§2) The mice were sacrificed, and bloods were collected by heart puncture. Serum samples were stored at −80° C. for future use. Kidney, spleens, lungs and liver were immediately fixed in 10% buffered formalin for histopathological analysis. Part of the kidney were snap frozen for RNA isolation.
(§3) RNA isolation and RT-PCR. RNA was isolated from snap-frozen kidney samples by using RNA plus micro kit (Qiagen) according to manufacturer's instruction. c-DNA were prepared by Quanta-Bio-C-DNA kit. […] The expression of various genes was analyzed in comparison to GAPDH. […]

IL-1β = assay: RT-PCR of kidney tissue, glycerol-treated mice: IL-1β; format: in vivo, mouse; conditions: whole kidney tissue, RT-PCR vs GAPDH
From the text: as §1, §2, §3

IL-10 = assay: RT-PCR of kidney tissue, glycerol-treated mice: IL-10; format: in vivo, mouse
From the text: as §1, §2
RNA isolation and RT-PCR. […] The expression of various genes was analyzed in comparison to GAPDH.
FIGS. 6A and 6B are graphs that show the level of the anti-inflammatory cytokine IL-10 in the whole kidney tissue (FIG. 6A) and in kidney cortex tissue (FIG. 6B) with or without AVR-48 treatment as determined by RT-PCR experiment. […]

hemeoxygenase-1 (OH-1) = assay: RT-PCR of kidney cortical tissue, glycerol-treated mice: hemeoxygenase-1; format: in vivo, mouse; conditions: kidney cortical tissue (FIG. 7A); vs glycerol
From the text: as §1, §2, §3

NGAL = assay: RT-PCR of kidney cortical tissue, glycerol-treated mice: NGAL; format: in vivo, mouse; conditions: kidney cortical tissue (FIG. 7B); vs glycerol
From the text: as §1, §2, §3

cyclooxygenase-2 (Cox-2) = assay: RT-PCR of whole kidney tissue, glycerol-treated mice: Cox-2 mRNA; format: in vivo, mouse; conditions: vs glycerol injection
From the text: as §1, §2
RNA isolation and RT-PCR. RNA was isolated from snap-frozen kidney samples by using RNA plus micro kit (Qiagen) according to manufacturer's instruction. c-DNA were prepared by Quanta-Bio-C-DNA kit. […] The expression of various genes was analyzed in comparison to GAPDH.

[1] = system: glycerol induced rhabdomyolysis model; assay: Survival in glycerol induced rhabdomyolysis model; format: in vivo, mouse; conditions: 10 mg/kg/dose IP from 3 h after glycerol, 2/day for 3 days; monitored till 8 days; vs glycerol+saline, p<0.05
From the text: as §1
FIG. 9 is a graph showing survival curve of the mouse in a glycerol induced rhabdomyolysis model when dosed after 3 h of glycerol administration.

[2] = system: glycerol induced damage of kidney tissues; assay: H/E staining of mouse whole kidney tissue after glycerol; format: in vivo; conditions: N=5
From the text: as §1, §2

[3] = system: mechanical ventilator induced kidney injury; assay: Preterm lamb model of mechanical ventilator induced kidney injury: renal cortical histology; format: in vivo; conditions: 3.0 mg/Kg twice daily IV during mechanical ventilation, vs vehicle (saline)
Description: (§4) A unique PT lamb model, developed by Dr. Albertine (University of Utah), was used to emulate the clinical setting for PT human infants with respiratory failure related to premature birth before the lungs are mature enough to support extra-uterine life.
(§5) A dose range-finding study was conducted with the goal of treating 2-3 PT lambs with either a vehicle control or AVR-48 (compound 8, 3mg/kg/dose) by twice daily intravenous infusions during 6 to 7 days of mechanical ventilation, followed by transition to noninvasive respiratory support (NIS) for 3 days, for a total of 10 days of management of these PT lambs. AVR-48 was not given during the period of noninvasive respiratory support to assess short-term persistence of effect of AVR-48. Detailed methods have been published previously by Reyburn et al. and Null et al (Reyburn, Li et al. 2008, Null, Alvord et al. 2014), relevant portions incorporated herein by reference. All protocols have been adhered to APS/NIH guidelines for animal research and have been approved by the Institution Animal Care and Use Committees (IACUC) at the University of Utah.
FIGS. 11A and 11B compare renal cortical histology from the preterm lamb treated with 3.0 mg/Kg of AVR-48 (FIG. 11A) versus the vehicle-treated lamb (saline; FIG. 11B). Renal cortical histology is normal in the 3.0 mg/Kg AVR-48-treated lamb. […]

[4] = system: mechanical ventilator induced kidney injury; assay: Preterm lamb model of mechanical ventilator induced kidney injury: BUN; format: in vivo; conditions: day 10, after 7 days of treatment on invasive mechanical ventilator
Description: as §4, §5
Fetal lamb is term lamb control. N=2-3, **p<0.01, *** student t test (2-tailed), Dunnett's multiple comparison test.

SMILES | blood urea nitrogen (BUN) level in serum (glycerol-induced AKI) | serum creatinine level (glycerol-induced AKI) | total proteinuria level (glycerol-induced AKI; urine at 24 hrs, albustix proteinuria strip, vs glycerol treated mice) | level of TNF-α in kidney tissue (TNF-α) | level of IL-1β in kidney tissue (IL-1β) | level of IL-10 in kidney cortex tissue (IL-10; kidney cortex tissue, RT-PCR (FIG. 6B), vs glycerol treated group) | level of IL-10 in whole kidney tissue (IL-10; whole kidney tissue, RT-PCR (FIG. 6A)) | level of hemeoxygenase-1 (OH-1) in kidney cortical tissue (hemeoxygenase-1 (OH-1)) | level of NGAL in kidney cortical tissue (NGAL) | Cox-2 mRNA level in whole kidney tissue (cyclooxygenase-2 (Cox-2)) | survival [1] | H/E staining of whole kidney tissue [2] | renal cortical histology [3] | BUN at day 10 [4]
CC(=O)NC1[C@H](Oc2ccc(C(=O)N[C@@H]3OC(COC(C)=O)[C@@H](OC(C)=O)[C@H](OC(C)=O)C3NC(C)=O)cc2)OC(CO)[C@@H](O)[C@@H]1O (stereo partly shown) [AVR-123] | significantly reduced | significantly reduced | – | – | – | – | – | – | – | – | – | – | – | –
CC(=O)N[C@@H]1C(Oc2ccc([N+](=O)[O-])cc2)OC(CO)C(O)C1O (stereo partly shown) [AVR-48] | significantly reduced | significantly reduced | decreased proteinuria levels | significantly decreased the level | significantly decreased the level | decreased the level and brought it back close to normal | significantly high | decreased the level significantly | decreased | decreased significantly | significant difference in survival | significant protection of kidney tissues | normal | decreased BUN
